Assay results published in paper PMC7748245, “Identification and Optimization of a Series of 8-Hydroxy Naphthyridines with Potent In Vitro Antileishmanial Activity: Initial SAR and Assessment of In Vivo Activity” (Journal of Medicinal Chemistry, 2020).
Like-named read-outs stand apart in the source and are kept apart here.

Experiments:
[1] = type: in vitro ADME, mouse
Method: As a means of measuring glucuronidation in vitro, 16 was assessed in a mouse liver hepatocyte assay.

[2] = Kinetic aqueous solubility; type: physicochemical; details: for solubility kinetic: read-out: Aq Solubility (kinetic aqueous solubility); for solubility: aqueous medium (not further specified), supplement sheet
Method: (§1) These assays were conducted as previously described.[23]

[3] = system: L. donovani amastigotes; assay: Intramacrophage L. donovani assay (Ld InMac); type: cell-based, Leishmania donovani; details: for LdInMac pIC50 / IC50: supplement sheet; for IC50: read-out: LdInMac pIC50 (converted)
Method: (§2) This assay was conducted as previously described,[8] except for compound exposure time, which was 96 h instead of 72 h.

[4] = Chrom Log D pH7.4; type: physicochemical; details: for ChromLogDpH7.4 / chromatographic logD: pH 7.4
Method: This assay was conducted as previously described.[11]

[5] = system: THP-1 cells; assay: THP-1 host cell toxicity readout of the intramacrophage assay; type: cell-based, human; details: for THP-1 (pEC50) / EC50: human THP-1 host cells; for THP1 pIC50 / IC50: supplement sheet; for IC50: Homo sapiens, THP-1, read-out: THP1 pIC50 (converted); for EC50: read-out: THP-1 (pEC50) (converted)
Method: as §2

[6] = Mouse liver microsomal intrinsic clearance; type: in vitro ADME; details: for Cli (mouse liver microsomal intrinsic clearance): mouse liver microsomes; for Cli (mouse, ml/min/g): supplement sheet
Method: as §1

[7] = system: Leishmania donovani; assay: VL mouse in vivo efficacy model (liver parasite burden, LDU)
Method: (§3) Because of having higher metabolic stability (in mouse liver microsomes) and lower Chrom Log D, compound 16 was progressed into a VL in vivo efficacy study, carried out in our previously described VL mouse model.[7] […] Parasite load was determined in the livers of animals 3 days after cessation of treatment, and parasite burden was expressed in Leishman Donovan units (LDUs, the mean number of amastigotes per liver cell × mg weight of liver). The blood exposure of compound 16 was also determined in dosed animals on days 1 and 5 to better understand the PK/pharmacodynamics (PD) relationship of the series. According to our project criteria, a compound needs to reduce parasite burden by >70% before being considered suitable for progression to lead-optimization, while a reduction of >95% would be considered suitable for a preclinical development candidate.[12]
In vivo studies were carried out as previously described.[12]

[8] = mouse, in vivo
Method: as §3, with “candidate.[12] In the study, miltefosine behaved as expected, reducing parasite levels by >99% at 30 mg/kg qd. After twice daily ip dosing at 50 mg/kg, compound 16 reduced parasite burden in mouse liver by 46%. This provided an early proof of concept for this series but fell short of our target of >70% parasite reduction.” for “candidate.[12]”

[9] = Mouse PK study 50 mg/kg ip (metabolites, tolerability); type: in vivo
Method: Since 7 itself was metabolically unstable (Cli = 10 mg/mL/g), we became interested in transferring the SAR from the triazole subseries (e.g., 16) to investigate its impact on metabolic stability, with a particular focus on glucuronidation. To this end, we synthesized 26 (Table 5) as a direct analogue of triazole 16.
Figure 3 PK profile of 26, showing levels of parent, glucuronide adduct, major hydroxylated metabolite, and other minor metabolites. Data are based on two replicates, with error bars representing the range of the data from the two runs. Blood/water (30 μL, 1:2) were collected following 50 mg/kg ip administration to Balb C mice at prescribed time points; 90 μL of acetonitrile (ACN) was then added to each sample and the samples were centrifuged for 5 min at 7000 rpm; 90 μL of supernatant was removed and added to 50 μL of Milli-Q water before ultrahigh-performance liquid chromatography–quadrupole time-of-flight (UPLC Q-TOF) analysis.
We synthesized a set of benzyl amides, where 4-methoxy analogue 27 and α-methyl-4-fluoro analogue 28 both gave very encouraging profiles, meeting progression criteria in terms of potency, metabolic stability, and clearance. […] Due to its impressive in vitro potency, we selected 28 for progression into an in vivo PK study.
We noted that a related compound from Merck, L-870,810 (30),[17] was reported as a clinical candidate targeting HIV integrase, which progressed as far as phase II clinical trials. […] Also, introducing substituents into the 5-naphthyridyl position had been a successful strategy for improving metabolic stability and potency in the triazole subseries. We therefore investigated a range of 5-substituted naphthyridyl analogues (Table 5). THP-amine 31 and morpholine 32 lost potency compared to parent compound 7, so we switched attention back to 5-phenylnaphthyridines. […] Further combinations of nonaromatic amides with differently substituted 5-phenylnaphthyridines were synthesized, and while changing the phenyl substituent gave flat SAR and no advantage over previous compounds, exploration of the amide led to 34 with a trans-4-methoxycyclopropylamide. Compound 34 gave a good balance of potency, solubility, and microsomal stability and was therefore selected for a mouse PK study.

[10] = target: T1, monoamine oxidase A (Homo sapiens, UniProt P21397); assay: GSK enhanced cross-screen panel (eXP): monoamine oxidase A; type: biochemical; details: read-out: pIC50 against monoamine oxidase A (converted)
T1 sequence (P21397 1-527): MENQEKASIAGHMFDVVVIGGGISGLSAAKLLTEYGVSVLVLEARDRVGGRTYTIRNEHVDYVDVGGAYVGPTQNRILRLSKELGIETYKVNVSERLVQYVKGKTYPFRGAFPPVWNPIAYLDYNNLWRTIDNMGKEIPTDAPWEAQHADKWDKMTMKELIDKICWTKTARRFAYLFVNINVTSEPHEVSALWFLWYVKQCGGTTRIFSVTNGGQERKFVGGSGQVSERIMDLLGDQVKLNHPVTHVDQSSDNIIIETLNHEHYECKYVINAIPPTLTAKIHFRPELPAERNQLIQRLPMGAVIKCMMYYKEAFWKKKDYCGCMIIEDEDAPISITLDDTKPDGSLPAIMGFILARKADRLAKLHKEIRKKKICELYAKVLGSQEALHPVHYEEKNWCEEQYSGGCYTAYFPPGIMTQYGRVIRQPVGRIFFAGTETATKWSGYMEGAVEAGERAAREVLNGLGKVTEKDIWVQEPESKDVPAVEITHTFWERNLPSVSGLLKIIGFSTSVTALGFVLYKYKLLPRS
Excerpt: (§4) First, the compounds which were poorly tolerated in mice, 28 and 34, were screened against a panel of >30 receptors with known links to in vivo toxicity (GSK-enhanced cross-screen panel (eXP)).[18] […] From this, it was not clear whether the effects seen in the receptor screen were related to the observed in vivo toxicity.

[11] = system: cell health (mitochondrial integrity); assay: GSK eXP: phenotypic cell health assay; type: cell-based; details: GSK eXP panel
Excerpt: as §4

[12] = system: phospholipidosis; assay: GSK eXP: phospholipidosis assay; type: cell-based; details: GSK eXP panel
Excerpt: as §4

[13] = target: bile salt export pump (BSEP) (Homo sapiens, UniProt O95342); assay: GSK eXP: bile salt export pump (BSEP) assay; type: biochemical; details: GSK eXP panel; read-out: pIC50 in BSEP assay (converted)
Excerpt: as §4

[14] = L. donovani amastigotes in THP-1 cells, 96 h compound exposure
[15] = chromatographic (HPLC retention) system, supplement sheet, read-out: ChromLogD
[16] = chromatographic system (Chrom Log D), read-out: ChromLogDpH7.4

bile salt export pump (BSEP), sequence (O95342 whole entry, species assumed): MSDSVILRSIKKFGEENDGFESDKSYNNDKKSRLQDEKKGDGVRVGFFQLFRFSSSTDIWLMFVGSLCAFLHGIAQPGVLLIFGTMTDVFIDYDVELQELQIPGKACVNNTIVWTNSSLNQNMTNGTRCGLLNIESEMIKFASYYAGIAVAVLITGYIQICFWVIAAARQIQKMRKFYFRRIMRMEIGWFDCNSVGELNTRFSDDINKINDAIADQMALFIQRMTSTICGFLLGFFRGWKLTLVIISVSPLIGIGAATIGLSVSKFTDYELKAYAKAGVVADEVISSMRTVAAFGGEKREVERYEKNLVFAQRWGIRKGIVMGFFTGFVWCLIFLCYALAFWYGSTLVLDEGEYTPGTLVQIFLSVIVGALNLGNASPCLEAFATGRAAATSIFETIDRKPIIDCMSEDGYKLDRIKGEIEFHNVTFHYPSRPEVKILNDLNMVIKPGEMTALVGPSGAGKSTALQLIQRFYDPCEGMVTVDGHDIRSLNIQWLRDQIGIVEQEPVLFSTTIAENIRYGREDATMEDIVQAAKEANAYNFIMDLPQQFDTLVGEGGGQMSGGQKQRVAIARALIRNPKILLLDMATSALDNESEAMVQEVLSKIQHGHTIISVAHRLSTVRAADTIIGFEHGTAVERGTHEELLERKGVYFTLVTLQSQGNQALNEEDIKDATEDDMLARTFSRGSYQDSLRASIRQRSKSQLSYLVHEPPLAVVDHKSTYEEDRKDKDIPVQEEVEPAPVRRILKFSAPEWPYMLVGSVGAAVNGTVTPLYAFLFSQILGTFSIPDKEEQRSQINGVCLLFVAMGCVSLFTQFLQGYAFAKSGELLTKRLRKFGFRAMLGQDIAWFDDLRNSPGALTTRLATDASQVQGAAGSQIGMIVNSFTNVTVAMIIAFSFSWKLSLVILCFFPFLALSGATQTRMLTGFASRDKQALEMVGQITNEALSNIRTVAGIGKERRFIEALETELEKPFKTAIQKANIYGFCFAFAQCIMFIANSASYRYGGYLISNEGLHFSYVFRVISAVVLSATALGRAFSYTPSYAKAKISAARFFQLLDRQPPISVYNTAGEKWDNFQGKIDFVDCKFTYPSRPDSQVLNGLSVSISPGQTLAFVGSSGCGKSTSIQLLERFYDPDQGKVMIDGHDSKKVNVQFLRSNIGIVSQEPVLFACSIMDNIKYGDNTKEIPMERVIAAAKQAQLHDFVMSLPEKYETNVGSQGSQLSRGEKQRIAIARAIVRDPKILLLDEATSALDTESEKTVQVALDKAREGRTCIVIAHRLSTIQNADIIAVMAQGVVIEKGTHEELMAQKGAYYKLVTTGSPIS

Row | SMILES | solubility kinetic [2] | Ld InMac (pEC50) [3, 14] | LdInMac pIC50 [3] | ChromLogDpH7.4 [4] | ChromLogD ([4]; supplement sheet) | THP-1 (pEC50) [5] | THP1 pIC50 [5] | Cli (mouse liver microsomal intrinsic clearance) [6] | Cli (mouse, ml/min/g) [6] | IC50 ([3]; Leishmania donovani) | IC50 [5] | solubility [2] | tolerability in mouse PK study ([9]; mouse) | chromatographic logD [4, 15] | chromatographic logD [4, 16] | EC50 [5] | further results
1 | COc1ccccc1-c1nc(-c2nc(C)n[nH]2)c(O)c2ncccc12 [Compound 16, 5-(2-Methoxyphenyl)-7-(3-methyl-1H-1,2,4-triazol-5-yl)-1,6-naphthyridin-8-ol] | >250 µM | 6.2 | 6.2 | 3.2 | 3.2 | <4.3 | <4.3 | 0.8 mL/min/g | 0.8 mL/min/g | – | – | – | – | – | – | – | glucuronide adduct observed in hepatocytes [1]: negligible amounts of the glucuronide adduct; clearance in mouse hepatocytes ([1]; mouse, hepatocytes): 1.4 mL/min/g; reduction of parasite burden in mouse liver ([7]; 50 mg/kg ip twice daily, 5 days): 46%; VL mouse efficacy model Reduction in parasite levels % ([7]; supplement sheet): 46%; Tmax [8]: 30 min; Tmax ([8]; ip, 50 mg/kg): 30 min; glucuronidated adducts in blood samples ([8]; ip, 50 mg/kg): presence of glucuronidated adducts; time unbound blood concentration exceeds EC99 ([8]; ip, 50 mg/kg): only during the first hour post-dose
2 | CNC(=O)c1nc(-c2ccccc2OC)c2cccnc2c1O [Compound 26, 8-Hydroxy-5-(2-methoxyphenyl)-N-methyl-1,6-naphthyridine-7-carboxamide] | – | – | – | – | – | – | – | – | – | 10 µM | 39.8 µM | – | – | – | – | – | parent remaining in blood ([9]; Balb C mice, 8 h post-dose): significant quantities of parent were still present 8 h post-dose; in vivo glucuronidation / metabolites ([9]; Balb C mice, blood): little evidence of glucuronidation
3 | CC(NC(=O)c1ncc2cccnc2c1O)c1ccc(F)cc1 (stereo not shown) [Compound 28, N-(1-(4-Fluorophenyl)ethyl)-8-hydroxy-1,6-naphthyridine-7-carboxamide] | > 250 µM | – | – | – | – | – | – | 3.7 mL/min/g | 3.7 mL/min/g | 0.158 µM | 5.01 µM | > 250 µg/mL | proved to be toxic | 5.1 | 5.1 | 5.01 µM | IC50 [10]: 3.98 µM; time to symptoms requiring termination ([9]; mouse): ≤ 3.5 h; IC50 ([11]; read-out: pIC50 in phenotypic cell health assay (converted)): 12.6 µM
4 | O=C(NCc1ccc(Cl)cc1)c1nc(NC2CCOCC2)c2cccnc2c1O [Compound 31, N-(4-Chlorobenzyl)-8-hydroxy-5-((tetrahydro-2H-pyran-4-yl)amino)-1,6-naphthyridine-7-carboxamide] | >250 µM | 5.3 | 5.3 | 5.3 | 5.3 | <4.3 | <4.3 | 2.2 mL/min/g | 2.2 mL/min/g | – | – | – | – | – | – | – | –
5 | COc1ccccc1-c1nc(C(=O)N[C@H]2CC[C@H](OC)CC2)c(O)c2ncccc12 [Compound 34, 8-Hydroxy-N-(trans-4-methoxycyclohexyl)-5-(2-methoxyphenyl)-1,6-naphthyridine-7-carboxamide] | > 250 µM | – | – | – | – | – | – | 1.4 mL/min/g | 1.4 mL/min/g | 1 µM | 39.8 µM | > 250 µg/mL | displayed the similar symptoms as with compound 28 | 5.7 | 5.7 | 39.8 µM | EC50 ([3]; Leishmania donovani, THP-1, 96 h, L. donovani amastigotes in THP-1 cells, 96 h compound exposure, read-out: Ld InMac (pEC50) (converted)): 1 µM; time after which study was terminated ([9]; mouse): 60 min; pIC50 in phenotypic cell health assay [11]: showed potency in the cell health assay; activity in phospholipidosis assay [12]: activity; IC50 [13]: 15.8 µM
